Tests used:
[1] = system: giant foxtail; experiment: Test C preemergence/postemergence greenhouse plant response rating 0 to 100; format: in vivo, Setaria faberii; details: POSTEMERGENCE
Summary of the method: (§1)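 Compounds in non-phytotoxic solvent applied preemergence to sandy loam one day after planting, postemergence at the 1–4 leaf stage, or to ~2.5 cm floodwater over silt loam.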

[2] = system: bedstraw; experiment: Test B preemergence/postemergence greenhouse plant response rating 0 to 10; format: in vivo, Galium aparine; details: POSTEMERGENCE, 0 to 10 scale
Summary of the method: (§2)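 Test chemicals, dissolved in a non-phytotoxic solvent, were applied to soil at planting and, at the same time, over foliage of seedlings at the one to four leaf stage.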

[3] = system: rice; experiment: as above; format: in vivo, Oryza sativa; details: 0 to 10 scale
Summary of the method: as §2

[4] = system: wild buckwheat; experiment: as above; format: in vivo, Polygonum convolvulus; details: 0 to 10 scale
Summary of the method: as §2

[5] = system: lambsquarters; experiment: Test C preemergence/postemergence greenhouse plant response rating 0 to 100; format: in vivo, Chenopodium album; details: POSTEMERGENCE
Summary of the method: as §1

[6] = system: blackgrass; experiment: Test B preemergence/postemergence greenhouse plant response rating 0 to 10; format: in vivo, Alopecurus myosuroides; details: 0 to 10 scale
Summary of the method: as §2

[7] = system: wheat; experiment: Test C preemergence/postemergence greenhouse plant response rating 0 to 100; format: in vivo, Triticum aestivum; details: POSTEMERGENCE
Summary of the method: as §1

[8] = system: barley; experiment: Test B preemergence/postemergence greenhouse plant response rating 0 to 10; format: in vivo, Hordeum vulgare; details: 0 to 10 scale
Summary of the method: as §2

[9] = system: barnyardgrass; experiment: Test C flood test plant response rating 0 to 100; format: in vivo, Echinochloa crus-galli
Summary of the method: as §1

[10] = system: blackgrass; experiment: Test C preemergence/postemergence greenhouse plant response rating 0 to 100; format: in vivo, Alopecurus myosuroides; details: POSTEMERGENCE
Summary of the method: as §1

[11] = system: ryegrass; experiment: as above; format: in vivo, Lolium multiflorum; details: POSTEMERGENCE
Summary of the method: as §1

[12] = system: corn; experiment: as above; format: in vivo, Zea mays; details: POSTEMERGENCE
Summary of the method: as §1

[13] = system: rape; experiment: as above; format: in vivo, Brassica napus; details: POSTEMERGENCE
Summary of the method: as §1

[14] = system: sugar beet; experiment: as above; format: in vivo, Beta vulgaris; details: POSTEMERGENCE
Summary of the method: as §1

[15] = system: cotton; experiment: Test B preemergence/postemergence greenhouse plant response rating 0 to 10; format: in vivo, Gossypium hirsutum; details: 0 to 10 scale
Summary of the method: as §2

[16] = system: cheatgrass; experiment: as above; format: in vivo, Bromus secalinus; details: 0 to 10 scale
Summary of the method: as §2

[17] = system: cocklebur; experiment: as above; format: in vivo, Xanthium pensylvanicum; details: 0 to 10 scale
Summary of the method: as §2

[18] = system: duck salad; experiment: Test C flood test plant response rating 0 to 100; format: in vivo, Heteranthera limosa
Summary of the method: as §1

[19] = POSTEMERGENCE section, flood test, Rate 1 g/ha
[20] = Rate 16 g/ha, under POSTEMERGENCE head (flood test species)
[21] = flood test species listed under POSTEMERGENCE, 62 g/ha, 0 to 100 scale

Compound: C#CCN1C(=O)COc2cc(F)c(-c3nn4c(c3Cl)CCCC4)cc21 [Compound 34]
- Plant response rating, Giant foxtail ([1]; 62 g/ha, 0 to 100 scale): 70
- Plant response rating (0 to 100), Giant foxtail ([1]; Rate 1 g/ha): 20
- Plant response rating (0 to 100), Giant foxtail ([1]; Rate 4 g/ha): 30
- Plant response rating (0 to 100), Giant foxtail ([1]; Rate 16 g/ha): 40
- Plant response rating, Bedstraw ([2]; Rate 10 g/ha): 10
- Plant response rating, Bedstraw ([2]; Rate 50 g/ha): 10
- Plant response rating, Rice ([3]; POSTEMERGENCE, Rate 10 g/ha): 5
- Plant response rating, Rice ([3]; POSTEMERGENCE, Rate 50 g/ha): 5
- Plant response rating, Rice ([3]; PREEMERGENCE, Rate 50 g/ha): 2
- Plant response rating, Wild buckwheat ([4]; POSTEMERGENCE, Rate 10 g/ha): 10
- Plant response rating, Wild buckwheat ([4]; POSTEMERGENCE, Rate 50 g/ha): 10
- Plant response rating, Wild buckwheat ([4]; PREEMERGENCE, Rate 50 g/ha): 8
- Plant response rating Lambsquarters ([5]; 62 g/ha, 0 to 100 scale): 100
- Plant response rating (0 to 100), Lambsquarters ([5]; Rate 1 g/ha): 80
- Plant response rating (0 to 100), Lambsquarters ([5]; Rate 4 g/ha): 100
- Plant response rating (0 to 100), Lambsquarters ([5]; Rate 16 g/ha): 100
- Plant response rating, Blackgrass ([6]; POSTEMERGENCE, Rate 10 g/ha): 4
- Plant response rating, Blackgrass ([6]; POSTEMERGENCE, Rate 50 g/ha): 6
- Plant response rating, Blackgrass ([6]; PREEMERGENCE, Rate 10 g/ha): 4
- Plant response rating, Blackgrass ([6]; PREEMERGENCE, Rate 50 g/ha): 6
- Plant response rating, Wheat ([7]; 62 g/ha, 0 to 100 scale): 50
- Plant response rating (0 to 100), Wheat ([7]; Rate 1 g/ha): 20
- Plant response rating (0 to 100), Wheat ([7]; Rate 4 g/ha): 30
- Plant response rating (0 to 100), Wheat ([7]; Rate 16 g/ha): 40
- Plant response rating, Barley ([8]; POSTEMERGENCE, Rate 10 g/ha): 4
- Plant response rating, Barley ([8]; POSTEMERGENCE, Rate 50 g/ha): 4
- Plant response rating, Barley ([8]; PREEMERGENCE, Rate 10 g/ha): 0
- Plant response rating, Barley ([8]; PREEMERGENCE, Rate 50 g/ha): 2
- Plant response rating (0 to 100), Barnyardgrass [9, 19]: 60
- Plant response rating (0 to 100), Barnyardgrass ([9]; Rate 4 g/ha, under POSTEMERGENCE head (flood test species)): 75
- Plant response rating (0 to 100), Barnyardgrass [9, 20]: 95
- Plant response rating, Barnyardgrass [9, 21]: 100
- Plant response rating, Blackgrass ([10]; 62 g/ha, 0 to 100 scale): 60
- Plant response rating (0 to 100), Blackgrass ([10]; Rate 1 g/ha): 20
- Plant response rating (0 to 100), Blackgrass ([10]; Rate 4 g/ha): 30
- Plant response rating (0 to 100), Blackgrass ([10]; Rate 16 g/ha): 50
- Plant response rating Ryegrass ([11]; 62 g/ha, 0 to 100 scale): 30
- Plant response rating (0 to 100), Ryegrass ([11]; Rate 1 g/ha): 10
- Plant response rating (0 to 100), Ryegrass ([11]; Rate 4 g/ha): 20
- Plant response rating (0 to 100), Ryegrass ([11]; Rate 16 g/ha): 30
- Plant response rating, Corn ([12]; 62 g/ha, 0 to 100 scale): 50
- Plant response rating (0 to 100), Corn ([12]; Rate 1 g/ha): 20
- Plant response rating (0 to 100), Corn ([12]; Rate 4 g/ha): 30
- Plant response rating (0 to 100), Corn ([12]; Rate 16 g/ha): 40
- Plant response rating, Rape ([13]; 62 g/ha, 0 to 100 scale): 100
- Plant response rating (0 to 100), Rape ([13]; Rate 1 g/ha): 85
- Plant response rating (0 to 100), Rape ([13]; Rate 4 g/ha): 100
- Plant response rating (0 to 100), Rape ([13]; Rate 16 g/ha): 100
- Plant response rating, Sugar beet ([14]; 62 g/ha, 0 to 100 scale): 100
- Plant response rating (0 to 100), Sugar beet ([14]; Rate 4 g/ha): 80
- Plant response rating (0 to 100), Sugar beet ([14]; Rate 16 g/ha): 100
- Plant response rating, Cotton ([15]; POSTEMERGENCE, Rate 10 g/ha): 10
- Plant response rating, Cotton ([15]; POSTEMERGENCE, Rate 50 g/ha): 10
- Plant response rating, Cotton ([15]; PREEMERGENCE, Rate 10 g/ha): 0
- Plant response rating, Cotton ([15]; PREEMERGENCE, Rate 50 g/ha): 0
- Plant response rating, Cheatgrass ([16]; POSTEMERGENCE, Rate 10 g/ha): 4
- Plant response rating, Cheatgrass ([16]; POSTEMERGENCE, Rate 50 g/ha): 5
- Plant response rating, Cheatgrass ([16]; PREEMERGENCE, Rate 10 g/ha): 3
- Plant response rating, Cheatgrass ([16]; PREEMERGENCE, Rate 50 g/ha): 6
- Plant response rating, Cocklebur ([17]; POSTEMERGENCE, Rate 10 g/ha): 10
- Plant response rating, Cocklebur ([17]; POSTEMERGENCE, Rate 50 g/ha): 1
- Plant response rating, Cocklebur ([17]; PREEMERGENCE, Rate 10 g/ha): 0
- Plant response rating, Cocklebur ([17]; PREEMERGENCE, Rate 50 g/ha): 2
- Plant response rating (0 to 100), Duck salad [18, 19]: 0
- Plant response rating (0 to 100), Duck salad ([18]; POSTEMERGENCE section, flood test, Rate 4 g/ha): 0
- Plant response rating (0 to 100), Duck salad [18, 20]: 0
- Plant response rating Duck salad [18, 21]: 40

— patent publication US6358885B1, “Substituted phenylheterocyclic herbicides” (Mississippi State University, priority 1992, dated 2002)
